In PubChem BioAssay (NCI) one finds GI50 and TGI data, which are given here for eight compounds.

Where “and” joins values, the source holds several entries; their conditions need not be identical. Equal entries are not always repeated.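 Values below derive from 48-hour exposures of cells grown in 96-well plates, with endpoints linearly interpolated between the two concentrations bracketing the appropriate inhibition level. Here, GI50 denotes the concentration required for 50% inhibition of growth. Definition used: TGI = concentration required for complete inhibition of growth.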

Assay in all cases: inhibition of tumour cell growth, NCI panel, 48 h
In assay [1] the test system is HCT-15 colon.
Assay [2] concerns SK-MEL-28 melanoma.
For assay [3], the system named is RXF 393 renal.
The subject of assay [4] is K-562 leukemia.
Assay [5] deals with HOP-62 NSCLC.
Assay [6] deals with OVCAR-5 ovarian.
Assay [7] deals with PC-3 prostate.
Assay [8] deals with SK-OV-3 ovarian.
Assay [9] concerns T-47D breast.
Assay [10] relates to EKVX NSCLC.

As for `COc1ccc(/C=C(\C#N)n2nnc3cc(Cl)ccc32)cc1`, the GI50 in assay [1] is 328 nM; in assay [2], 1330 nM; in assay [3], 787 nM; in [4], 217 nM; in assay [5], 0.887 µM; in [6] it was 1400 nM. In addition, the GI50 in assay [7] was 498 nM; in [8], 7.09 µM; in [9], 407 nM; in assay [10] it was 1470 nM. The TGI in assay [1] was 11.4 µM; in assay [2], 31.2 µM; in [3], 2.62 µM; in [4], more than 100 µM; in assay [5] it was 11.1 µM; in [6] it was 6.44 µM. The figures for the TGI in assay [7], in [8] and in assay [10] were more than 75.2 µM, more than 82.3 µM and more than 78 µM, respectively.
As for `C=C1C(=O)OC2C1C(OC(=O)/C(C)=C/C)CC(O)(CCl)C1C(OC(C)=O)C=C(C)C21O` (stereo unspecified), the TGI in [1] is 21.7 µM; in assay [2] it was 27.9 µM; in assay [3], 25 µM; in assay [4], more than 37.4 µM; in assay [5], more than 66 µM; in assay [6] it was 31.9 µM. The TGI in assay [7] is 30.8 µM; in assay [8] it was more than 100 µM; in assay [9] it was 42.6 µM; in [10], 24.7 µM.
For the compound `CC(=O)C(C(=N)C#N)C(=O)Nc1ccccc1` (stereo unspecified), the TGI in assay [1], in [2], in [3], in assay [4], in assay [5] and in [6] was more than 100 µM throughout. For the same compound, the TGI in [7], in [8], in assay [9] and in assay [10] was more than 100 µM throughout.
Regarding `COc1cccc(-c2nc(-c3ccc(NS(=O)(=O)c4ccccc4)cc3)[nH]c2-c2ccnc(Br)c2)c1`, the GI50 was 2910 nM in [2]; 2180 nM in assay [3]; 2600 nM in [4]; 3.39 µM in assay [5]; 4170 nM in assay [6]; 2390 nM in assay [7]. Besides, the GI50 in assay [8] is 3.04 µM; in assay [9], 2740 nM; in assay [10] it was 2250 nM. For the same compound, the TGI in assay [2] is 31 µM; in assay [3], 5.73 µM; in [4], more than 100 µM; in assay [5] it was more than 100 µM; in assay [6], more than 100 µM; in assay [7], 16.9 µM. Moreover, the values for the TGI in [8], in [9] and in assay [10] were more than 100 µM, more than 100 µM and 9.06 µM, respectively.
Take `COc1ccc(C(=O)c2cc(OC)c(OC)c(OC)c2)cc1/C=C/C(=O)c1ccc(O)cc1`: the GI50 in assay [1] was 2150 nM; in assay [2], 4750 nM; in [3], 3570 nM; in [4] it was 357 nM; in assay [5], 21.1 µM; in assay [6] it was 11200 nM. Also, the GI50 in assay [7] is 1690 nM; in [8] it was 16.3 µM; in assay [9], 19000 nM; in assay [10], 4550 nM. In addition, the TGI was 7.42 µM in assay [1]; 17.5 µM in [2]; 14.9 µM in assay [3]; more than 100 µM in assay [4]; 53.4 µM in assay [5]; 25.1 µM in assay [6]. Further, the TGI is 4.71 µM in assay [7], more than 100 µM in [8], more than 100 µM in assay [9] and 19.4 µM in [10].
In the case of `CC1/C=C/C=C/CC/C=C/C=C/C=C/C=C/C(OC2OC(C)C(O)C(N)C2O)CC2OC(CC(O)C(O)CCC(O)CC(O)CC(O)CC(=O)OC(C)C(C)C1O)CC(O)C2C(=O)O` (stereo unspecified), the GI50 in assay [1] is 43.8 µg/mL; in assay [2] it was 25.7 µg/mL; in assay [3], 19.5 µg/mL; in assay [4], 74.9 µg/mL; in assay [5], 25.4 µg/mL; in [6], 49.5 µg/mL. Further, the figures for the GI50 in [7], in assay [8] and in assay [9] were 31.2 µg/mL, 47.1 µg/mL and 59.8 µg/mL, respectively. In addition, the TGI in assay [1] was 82.2 µM and 150 µg/mL; in [2] it was 37 µM and 46.3 µg/mL; in assay [3], 27.3 µM and 40.5 µg/mL; in assay [4] it was > 100 µM and 150 µg/mL; in assay [5], 35.8 µM and 55.3 µg/mL; in [6], 35.8 µM and 135 µg/mL. Besides, the TGI in [7] was 36.4 µM and 75.7 µg/mL; in [8], 44.4 µM and 136 µg/mL; in [9], > 100 µM and 150 µg/mL; in assay [10], 30.9 µM.
Take `C=C1C(=O)O[C@H]2[C@H]1CC/C(COC(=O)/C=C/c1cccnc1)=C\CC[C@@]1(C)O[C@@H]21`: the GI50 in [1] was 1110 nM; in [2], 1260 nM; in [3], 750 nM; in assay [4], 1040 nM; in assay [5] it was 11.5 µM; in assay [6], 2110 nM. Further, the GI50 in assay [7] is 8280 nM; in assay [8], 16.4 µM; in assay [9], 1880 nM; in assay [10] it was 3280 nM. Further, the TGI in assay [1] came out at 2.71 µM; in assay [2], 2.61 µM; in assay [3] it was 2.15 µM; in assay [4], 6.13 µM; in assay [5], 24.6 µM; in assay [6], 5.94 µM. Moreover, the TGI was 22.1 µM in assay [7], 53 µM in assay [8], 5.12 µM in [9] and 14.3 µM in [10].
Turning to `NCCCn1c2c(c3ccccc3c1=O)C(=O)c1cc3c(cc1-2)OCO3`, the GI50 in assay [1] was 101 nM; in [2] it was 2230 nM; in assay [3] it was 2350 nM; in [4], 200 nM; in assay [5], 0.278 µM; in assay [6], 1540 nM. The GI50 in assay [7] was 1220 nM; in assay [8], 1.93 µM; in [9] it was 407 nM; in [10], 1230 nM. Also, the TGI in assay [1] was 0.882 µM; in [2], 9.37 µM; in assay [3], more than 30.3 µM; in assay [4] it was 4.23 µM; in assay [5], 12.2 µM; in assay [6] it was 4.08 µM. Moreover, the TGI in assay [7] is 7.41 µM; in assay [8], 13 µM; in [9] it was 3.66 µM; in assay [10] it was 4.79 µM.
